Assay results as given in patent publication US10238656B2, “Combination therapy for cancer” (Eli Lilly and Company, priority 2014, dated 2019).
Several values for one entry are separate records, joined by “and”; a condition that tells them apart may be missing. Equal values may be shown once.

Assays:
[1] = Body weight (tolerability), NCI-H441 xenograft Study 2; format: in vivo, female Hsd athymic nude mice
Description: (§1) Assess antitumor efficacy of the combination of DC101 and Compound A by measuring tumor volume by three dimensional caliper measurements twice a week during the course of the study. Measure body weight twice weekly during the course of the study, as a general indicator of tolerability.
(§2) Treat female Hsd athymic nude mice (n=7) bearing NCI-H441 xenograft tumors with Compound A by oral gavage (PO) once daily for 28 days at a dose of 50 or 75 mg/kg using 0.2 mL/dose. Administer Compound A starting after the mean tumor volumes reach approximately 150-200 mm^3 in size (day 36 after tumor implantation) and end treatment 28 days later (on day 63). Measure tumor volume and body weight twice a week for the duration of the treatment period.
(§3) Treat female Hsd athymic nude mice (n=7) bearing NCI-H441 xenograft tumors with DC101 twice weekly for four weeks by intraperitoneal injection at a dose 20 mg/kg. Administer DC101 starting after the mean tumor volumes reach approximately 150-200 mm^3 in size (day 36 after tumor implantation). Measure tumor volume and body weight twice a week for the duration of the treatment period.
Treat female Hsd athymic nude mice (n=7) bearing NCI-H441 xenograft tumors with Compound A by oral gavage once daily for 28 days at a dose of 50 mg/kg or 75 mg/kg using 0.2 mL/dose and intraperitoneal inject DC101 twice weekly at a dose of 20 mg/kg. […]

[2] = Body weight (tolerability), NCI-H2122 xenograft study; format: in vivo, female Hsd athymic nude mice; details: Compound A 50 or 75 mg/kg monotherapy
Description: as §1
as §2, with “(n=8)” for “(n=7)”, “NCI-H2122” for “NCI-H441”, “16” for “36”, “on” for “28 days later (on”, “43.” for “63).”
as §3, with “(n=8)” for “(n=7)”, “NCI-H2122” for “NCI-H441”, “DC101” for “DC101 twice weekly for four weeks”, “16” for “36”, “implantation) and continue twice weekly for four weeks.” for “implantation).”
Treat female Hsd athymic nude mice (n=8) bearing NCI-H2122 xenograft tumors with Compound A by oral gavage (PO) once daily for 28 days at a dose of 50 or 75 mg/kg using 0.2 mL/dose and intraperitoneal inject DC101 twice weekly at a dose of 20 mg/kg. […]

[3] = system: NCI-H441 xenograft tumors; assay: Antitumor efficacy in NCI-H441 xenograft model, Study 1; format: in vivo, female Hsd athymic nude mice
Source text: (§4) Grow the human NSCLC line NCI-H441 or NCI-H2122 in RPMI 1640 medium+10% fetal bovine serum. Harvest sub-confluent cells with trypsin and rinse twice with growth medium without serum. For subcutaneous tumors, initiate growth by subcutaneous injection of 5×10^6 cells in a 1:1 mixture of Hank's balanced salt solution (HBSS) and Matrigel (BD Bioscience, Franklin Lakes, N.J.) in the rear flank of each subject animal. When mean tumors volumes reach approximately 150-200 mm^3 in size, randomize the animals by tumor size and body weight by randomization techniques well known in the art and place into their respective treatment groups using the number of animals per group as indicated.
Capture tumor size and body weight using Web Director. Estimate tumor volume (V) by using the formula: V=0.536L×W^2 where L=larger of measured diameter and W=smaller of perpendicular diameter. Transform the tumor volume data to a log scale to equalize variance across time and treatment groups. Analyze the log volume data with a two-way repeated measures analysis of variance by time and treatment using the MIXED procedures in SAS software (Version 9.3). The correlation model for the repeated measures is Spatial Power. Compare treated groups compared to the control group at each time point. Use the MIXED procedure also separately for each treatment group to calculate adjusted means and standard errors at each time point. Both analyses account for the autocorrelation within each animal and the loss of data that occurred when animals with large tumors were removed from the study early. Plot the adjusted means and standard errors for each treatment group versus time. Calculate relative changes in tumor volume (% T/C) using the tumor volume measurements taken nearest to the last day of dosing with Compound A, whereas the baseline tumor volume is the volume recorded on or just prior to first day of dosing. Calculate % T/C values using the formula % T/C=100×ΔT/ΔC, whereby T=mean tumor volume of the compound treated group, ΔT=mean tumor volume of the compound treated group minus the mean tumor volume on the baseline day, C=mean tumor volume of the control (vehicle) group, and ΔC=mean tumor volume of the control group minus the mean tumor volume on the baseline day. Tumor growth inhibition is observed in those instances where the calculated values for % T/C are less than 100% whereby greater inhibition results in smaller % T/C values. If ΔT was <0, then a tumor regression value was calculated instead of % T/C whereby % Regression=100×ΔT/Tinitial such that Tinitial=the grand mean of the tumor volume for all the treatment groups. Any negative values for % T/C listed are values for % Regression. […]

[4] = Body weight (tolerability), NCI-H441 xenograft Study 1; format: in vivo, female Hsd athymic nude mice; details: baseline (day 14) versus day 42
Description: as §1
as §2, with “(n=8)” for “(n=7)”, “gavage” for “gavage (PO)”, “100” for “75”, “15” for “36”, “42).” for “63).”
Treat female Hsd athymic nude mice (n=8) bearing NCI-H441 xenograft tumors with DC101 twice weekly for four weeks by intraperitoneal injection at doses of 10, 20 or 40 mg/kg. Administer DC101 starting after the mean tumor volumes reach approximately 150-200 mm^3 in size (day 15 after tumor implantation) and end on day 39. Measure tumor volume and body weight twice a week for the duration of the treatment period.
Treat female Hsd athymic nude mice (n=8) bearing NCI-H441 xenograft tumors with Compound A by oral gavage once daily for 28 days at a dose of 50 mg/kg using 0.2 mL/dose and intraperitoneal inject DC101 twice weekly at a dose of 20 mg/kg. […]

[5] = system: NCI-H2122 xenograft tumors; assay: Antitumor efficacy in NCI-H2122 xenograft model; format: in vivo, female Hsd athymic nude mice; details: Day 45
Source text: as §4
Capture tumor size and body weight using Web Director. Estimate tumor volume (V) by using the formula: V=0.536L×W^2 where L=larger of measured diameter and W=smaller of perpendicular diameter. Transform the tumor volume data to a log scale to equalize variance across time and treatment groups. […] Calculate relative changes in tumor volume (% T/C) using the tumor volume measurements taken nearest to the last day of dosing with Compound A, whereas the baseline tumor volume is the volume recorded on or just prior to first day of dosing. […] Tumor growth inhibition is observed in those instances where the calculated values for % T/C are less than 100% whereby greater inhibition results in smaller % T/C values. […]

[6] = system: NCI-H441 xenograft tumors; assay: Antitumor efficacy in NCI-H441 xenograft model, Study 2; format: in vivo, female Hsd athymic nude mice
Source text: as §4
Capture tumor size and body weight using Web Director. Estimate tumor volume (V) by using the formula: V=0.536L×W^2 where L=larger of measured diameter and W=smaller of perpendicular diameter. Transform the tumor volume data to a log scale to equalize variance across time and treatment groups. Analyze the log volume data with a two-way repeated measures analysis of variance by time and treatment using the MIXED procedures in SAS software (Version 9.3). The correlation model for the repeated measures is Spatial Power. Compare treated groups compared to the control group at each time point. Use the MIXED procedure also separately for each treatment group to calculate adjusted means and standard errors at each time point. Both analyses account for the autocorrelation within each animal and the loss of data that occurred when animals with large tumors were removed from the study early. Plot the adjusted means and standard errors for each treatment group versus time. Calculate relative changes in tumor volume (% T/C) using the tumor volume measurements taken nearest to the last day of dosing with Compound A, whereas the baseline tumor volume is the volume recorded on or just prior to first day of dosing. Calculate % T/C values using the formula % T/C=100×ΔT/ΔC, whereby T=mean tumor volume of the compound treated group, ΔT=mean tumor volume of the compound treated group minus the mean tumor volume on the baseline day, C=mean tumor volume of the control (vehicle) group, and ΔC=mean tumor volume of the control group minus the mean tumor volume on the baseline day. Tumor growth inhibition is observed in those instances where the calculated values for % T/C are less than 100% whereby greater inhibition results in smaller % T/C values. If ΔT was <0, then a tumor regression value was calculated instead of % T/C whereby % Regression=100×ΔT/Tinitial such that Tinitial=the grand mean of the tumor volume for all the treatment groups. Any negative values for % T/C listed are values for % Regression.
as §1
Formulations for Compound A and DC101: Formulate Compound A on a weekly basis in 1% hydroxyethyl cellulose (HEC) in 25 mM phosphate buffer (PB) at a pH of 2 and store at 4° C. Solubilize DC101 in phosphate buffered saline and store at 4° C.
Control Group: administer to the animals in the control group, both vehicles used for Compound A and DC101 according to the same schedules for each compound, respectively.
For the monotherapy groups, treat the animals with the desired compound as directed and with the vehicle for the compound not being dosed by following the schedule for the non-dosed compound.
as §2, with “Measure tumor volume and body weight twice a week for the duration of the treatment period.” left out

Stage IV NSCLC = assay: Phase 1b study of abemaciclib in combination with ramucirumab, tumor response; format: in vivo, human; design: key: PR is partial response;; SD is stable disease;; PD is progressive disease;; NDR is no data reported; details: preliminary
Description: This study is a multicenter, nonrandomized, open-label, dose-escalation Phase 1b study of oral dosing of [5-(4-ethyl-piperazin-1-ylmethyl)-pyridin-2-yl]-[5-fluoro-4-(7-fluoro-3-isopropyl-2-methyl-3H-benzoimidazol-5-yl)-pyrimidin-2-yl]-amine at 100 mg, 150 mg, or 200 mg every 12 (±3) hours on Days 1 through 21 of a 21-day cycle. in combination with ramucirumab administered at 10 mg/kg over a 60-minute IV infusion followed by a 1-hour observation period on Day 1 of a 21-day cycle for patients with Stage IV NSCLC.
The primary objective of this study is to evaluate the safety and tolerability of [5-(4-ethyl-piperazin-1-ylmethyl)-pyridin-2-yl]-[5-fluoro-4-(7-fluoro-3-isopropyl-2-methyl-3H-benzoimidazol-5-yl)-pyrimidin-2-yl]-amine when administered orally in combination with ramucirumab to patients with Stage IV NSCLC using Common Terminology Criteria for Adverse Events (CTCAE version 4.0, NCI 2009).
The secondary objectives of the study are to document the antitumor activity of [5-(4-ethyl-piperazin-1-ylmethyl)-pyridin-2-yl]-[5-fluoro-4-(7-fluoro-3-isopropyl-2-methyl-3H-benzoimidazol-5-yl)-pyrimidin-2-yl]-amine when given in combination with ramucirumab; to determine the pharmacokinetics (PK) of [5-(4-ethyl-piperazin-1-ylmethyl)-pyridin-2-yl]-[5-fluoro-4-(7-fluoro-3-isopropyl-2-methyl-3H-benzoimidazol-5-yl)-pyrimidin-2-yl]-amine when given in combination with ramucirumab; and to characterize changes in patient-reported pain and disease-related symptoms collected via the MD Anderson Symptom Inventory-Lung Cancer (MDASI-LC).
[5-(4-Ethyl-piperazin-1-ylmethyl)-pyridin-2-yl]-[5-fluoro-4-(7-fluoro-3-isopropyl-2-methyl-3H-benzoimidazol-5-yl)-pyrimidin-2-yl]-amine is supplied as capsules at 100 mg, 150 mg, or 200 mg for oral administration.
Ramucirumab is supplied in a sterile, preservative-free solution for infusion of ramucirumab formulated in an aqueous solution at a concentration of […] (500 mg/50-mL vial). The buffer contains 10 mM histidine, 75 mM sodium chloride, 133 mM glycine, and 0.01% polysorbate 80, pH 6.0. Ramucirumab is supplied in single-use 50-mL nominal volume glass vials.
The first dose of ramucirumab is dependent upon the patient's baseline body weight in kilograms. Subsequent doses of ramucirumab must be recalculated if there is a ≥10% change (increase or decrease) in body weight from last dose calculation; subsequent doses may be recalculated if there is a <10% change (increase or decrease) in body weight from last dose calculation.

[7] = Compound A 50 mg/kg monotherapy
[8] = Compound A 75 mg/kg monotherapy
[9] = Compound A 50 mg/kg monotherapy, end of treatment period
[10] = abemaciclib 150 mg every 12 hours + ramucirumab 10 mg/kg IV Day 1 of 21-day cycle, individual patients 1-3
[11] = abemaciclib 200 mg every 12 hours + ramucirumab 10 mg/kg IV Day 1 of 21-day cycle, individual patients 4-8

SMILES: CCN1CCN(Cc2ccc(Nc3ncc(F)c(-c4cc(F)c5nc(C)n(C(C)C)c5c4)n3)nc2)CC1.CS(=O)(=O)O [Compound A, [5-(4-Ethyl-piperazin-1-ylmethyl)-pyridin-2-yl]-[5-fluoro-4-(7-fluoro-3-isopropyl-2-methyl-3H-benzoimidazol-5-yl)-pyrimidin-2-yl]-amine methanesulfonate]
- maximum relative body weight loss [1, 7]: 5.5%
- maximum relative body weight loss [1, 8]: 5.1%
- changes in relative body weight [2]: not statistically different from the control group
- partial response (animals) [3, 9]: 6/8
- stable disease (animals) [3, 9]: 2/8
- partial response (animals) ([3]; Compound A 100 mg/kg monotherapy, end of treatment period): 8/8
- mean percent regression ([3]; Compound A 100 mg/kg oral gavage once daily 28 days, study day 42): −22.8%
- maximum relative body weight loss ([4]; Compound A 50 mg/kg): 2.7%
- maximum relative body weight loss ([4]; Compound A 100 mg/kg): 4.7%
- % T/C ([5]; Compound A 50 mg/kg PO once daily 28 days): 64.3%
- % T/C ([5]; Compound A 75 mg/kg PO once daily 28 days): 37.3%
- % T/C ([6]; Compound A 50 mg/kg PO once daily 28 days, Day 67): 7.0%
- combined frequency for stable disease and partial response (disease control rate) [6, 7]: 4/7
- mice achieving complete regression [6, 7]: 2/7
- regression ([6]; Compound A 75 mg/kg PO once daily 28 days, Day 67): −4.8%
- combined frequency for stable disease and partial response (disease control rate) [6, 8]: 6/7
- mice achieving complete regression [6, 8]: 3/7

SMILES: CCN1CCN(Cc2ccc(Nc3ncc(F)c(-c4cc(F)c5nc(C)n(C(C)C)c5c4)n3)nc2)CC1 [abemaciclib, [5-(4-Ethyl-piperazin-1-ylmethyl)-pyridin-2-yl]-[5-fluoro-4-(7-fluoro-3-isopropyl-2-methyl-3H-benzoimidazol-5-yl)-pyrimidin-2-yl]-amine]
- Overall Response (Stage IV NSCLC; [10]): SD and PR and PD
- Target Response (Stage IV NSCLC; [10]): SD and PR
- Overall Response (Stage IV NSCLC; [11]): SD (3×) and PD and PR
- Target Response (Stage IV NSCLC; [11]): SD (2×) and PD and PR
